Test results as given in paper PMC5352749, “Novel insights into biosynthesis and uptake of rhamnolipids and their precursors” (Applied Microbiology and Biotechnology, 2016).

Key:
RhlB = molecular target: T1, RhlB (Pseudomonas aeruginosa, UniProt Q9HYD1); experiment: HPLC-UV of mono-rhamnolipids formed by recombinant P. putida fed HAA; format: cell-based; details: HAA-containing conditioned LB medium (congener mixture, C10-C10 quantified); 30 °C, 24 h; cellular dTDP-L-rhamnose as donor
T1 construct: full-length untagged gene in pVLT33 (native RBS), expressed alone in P. putida KT2440
T1 sequence (Q9HYD1 entry or part of it): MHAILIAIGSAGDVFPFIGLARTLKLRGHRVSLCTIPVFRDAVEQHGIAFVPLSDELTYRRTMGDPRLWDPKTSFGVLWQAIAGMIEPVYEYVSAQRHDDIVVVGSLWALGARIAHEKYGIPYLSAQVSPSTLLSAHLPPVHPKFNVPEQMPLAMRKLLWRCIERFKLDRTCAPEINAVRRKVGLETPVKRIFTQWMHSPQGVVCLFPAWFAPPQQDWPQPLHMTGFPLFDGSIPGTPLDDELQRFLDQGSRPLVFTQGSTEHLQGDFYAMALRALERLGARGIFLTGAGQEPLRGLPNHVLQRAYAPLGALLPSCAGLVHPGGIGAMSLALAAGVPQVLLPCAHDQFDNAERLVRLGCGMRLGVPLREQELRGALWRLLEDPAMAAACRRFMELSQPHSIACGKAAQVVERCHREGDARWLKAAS

RhlC = molecular target: T2, RhlC (Pseudomonas aeruginosa, UniProt Q9I4K5); experiment: HPLC-UV of di-rhamnolipids formed by recombinant P. putida fed mono-rhamnolipids; format: cell-based; details: mono-rhamnolipid conditioned LB medium (congener mixture, C10-C10 predominant and quantified); 30 °C, 24 h; cellular dTDP-L-rhamnose as donor
T2 construct: full-length untagged gene in pVLT33 (native RBS), expressed alone in P. putida KT2440
T2 sequence (Q9I4K5 entry or part of it): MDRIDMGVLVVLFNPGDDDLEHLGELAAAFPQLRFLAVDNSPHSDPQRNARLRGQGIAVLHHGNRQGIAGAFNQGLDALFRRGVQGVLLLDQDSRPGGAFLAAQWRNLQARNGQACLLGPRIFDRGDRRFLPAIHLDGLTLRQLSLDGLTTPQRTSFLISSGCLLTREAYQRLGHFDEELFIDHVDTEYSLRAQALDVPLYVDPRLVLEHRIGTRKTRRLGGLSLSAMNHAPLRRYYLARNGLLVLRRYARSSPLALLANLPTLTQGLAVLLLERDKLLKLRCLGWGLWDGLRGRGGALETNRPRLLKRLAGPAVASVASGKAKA

Row | SMILES | HPLC-UV of mono-rhamnolipids formed by recombinant P. putida fed HAA (RhlB) | HPLC-UV of di-rhamnolipids formed by recombinant P. putida fed mono-rhamnolipids (RhlC)
1 | CCCCCCCC(O)CC(=O)OC(CCCCCCC)CC(=O)O (centres unmarked) [C10-C10 (HAA)] | HAAs synthesized by P. putida and provided in the form of the conditioned medium serve | –
2 | CCCCCCC[C@H](CC(=O)O)OC(=O)C[C@@H](CCCCCCC)O[C@@H]1O[C@@H](C)[C@H](O)[C@@H](O)[C@H]1O [Rha-C10-C10] | – | extracellularly provided mono-rhamnolipids were converted to di-rhamnolipids by RhlC in recombinant P. putida
